Test [1] addresses T1, Adenosine receptor A1 (Bos taurus) (UniProt P28190).
T1 sequence (whole entry): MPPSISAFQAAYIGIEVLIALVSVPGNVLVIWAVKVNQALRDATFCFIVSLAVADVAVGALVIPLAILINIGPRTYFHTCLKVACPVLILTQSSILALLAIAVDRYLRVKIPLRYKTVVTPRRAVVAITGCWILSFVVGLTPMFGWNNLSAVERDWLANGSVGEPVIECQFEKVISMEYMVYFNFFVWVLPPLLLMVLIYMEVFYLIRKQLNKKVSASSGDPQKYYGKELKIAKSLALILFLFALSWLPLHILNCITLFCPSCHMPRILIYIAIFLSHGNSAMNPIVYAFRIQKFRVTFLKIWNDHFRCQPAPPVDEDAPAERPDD
Put plainly: Percentage inhibition of [3H]CHA binding to adenosine A1 receptor in bovine cerebral cortical membranes at 20 uM. The format is cell membranes.

Another test has as its target T2, Adenosine receptor A3 (Homo sapiens, UniProt P0DMS8).
T2 sequence (P0DMS8 whole entry): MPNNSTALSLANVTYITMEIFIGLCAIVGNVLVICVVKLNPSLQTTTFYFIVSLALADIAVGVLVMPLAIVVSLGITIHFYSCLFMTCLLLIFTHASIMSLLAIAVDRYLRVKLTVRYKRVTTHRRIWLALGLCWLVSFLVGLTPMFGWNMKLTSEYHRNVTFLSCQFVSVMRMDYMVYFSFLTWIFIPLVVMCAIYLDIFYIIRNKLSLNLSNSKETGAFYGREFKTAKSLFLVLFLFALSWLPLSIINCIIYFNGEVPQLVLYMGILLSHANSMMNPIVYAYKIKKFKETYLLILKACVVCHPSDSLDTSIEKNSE
Put plainly: Displacement of [125I]AB-MECA from human adenosine A3 receptor expressed in CHO cells. The format is cell-based.

Test [2] has as its target T3, Adenosine receptor A3 (Homo sapiens) (UniProt P0DMS8).
T3 sequence (whole entry): T2 sequence (P0DMS8 whole entry)
In words: Percentage inhibition of [125I]AB-MECA binding to human adenosine A3 receptor expressed in CHO cells at 1 uM. In kind it is cell-based.

Test [3] concerns Adenosine receptor A2a (Bos taurus). Put plainly: Percentage inhibition of [3H]CGS 21680 binding to adenosine A2A receptor in bovine striatal membranes at 20 uM. To be noted: Striatum, Membrane.
Test [4] concerns the target T4, Adenosine receptor A1 (Bos taurus, UniProt P28190).
T4 sequence (P28190 whole entry): T1 sequence (whole entry)
Put plainly: Displacement of [3H]CHA from adenosine A1 receptor in bovine cerebral cortical membranes. The format is cell membranes. For orientation: Displacement assays read how much labelled ligand stays bound in the presence of the test substance.

Test [5] concerns the target T5, Adenosine receptor A1 (Homo sapiens, UniProt P30542).
T5 sequence (P30542 whole entry): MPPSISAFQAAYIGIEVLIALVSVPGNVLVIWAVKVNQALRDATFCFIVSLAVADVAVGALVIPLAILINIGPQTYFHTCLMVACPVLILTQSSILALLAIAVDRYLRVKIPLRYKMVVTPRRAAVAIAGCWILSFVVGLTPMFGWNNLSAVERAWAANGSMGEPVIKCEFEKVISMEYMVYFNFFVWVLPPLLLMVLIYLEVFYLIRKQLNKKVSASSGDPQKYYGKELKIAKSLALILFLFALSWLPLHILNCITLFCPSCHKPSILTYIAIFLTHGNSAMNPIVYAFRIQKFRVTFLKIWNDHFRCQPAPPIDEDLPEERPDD
Put plainly: Displacement of [3H]CHA from cloned human adenosine A1 receptor expressed in CHO cells. In kind it is cell-based.

The target in test [6] is Adenosine receptors; A1 & A3 (Homo sapiens) (UniProt P30542+P0DMS8). Put plainly: Selectivity for human adenosine A3 receptor over human adenosine A1 receptor. The format is protein assay.
In test [7] the test system is Adenosine receptor A2a (Bos taurus). Put plainly: Percentage inhibition of [3H]CGS 21680 binding to adenosine A2A receptor in bovine striatal membranes at 34 uM. To be noted: Striatum, Membrane.
Test [8] concerns the target T6, Adenosine receptor A1 (Homo sapiens) (UniProt P30542).
T6 sequence (whole entry): T5 sequence (P30542 whole entry)
Put plainly: Percentage inhibition of [3H]CHA binding to cloned human adenosine A1 receptor expressed in CHO cells at 10 uM. The format is cell-based.

The target in test [9] is Adenosine receptor A2a (Homo sapiens) (UniProt P29274). Put plainly: Percentage inhibition of [3H]NECA binding to cloned human adenosine A2A receptor expressed in CHO cells at 10 uM. The format is cell-based.
Test [10] in a line: Selectivity for human adenosine A3 receptor over human adenosine A2A receptor.
Test [11] has as its target T1, Adenosine receptor A1 (Bos taurus). In words: Percentage inhibition of [3H]CHA binding to adenosine A1 receptor in bovine cerebral cortical membranes at 34 uM. The format is cell membranes.
In test [12] the target is Adenosine receptor A2a (Bos taurus). Put plainly: Displacement of [3H]CGS 21680 from adenosine A2A receptor in bovine striatal membranes.

Sequence of Adenosine receptor A2a (Homo sapiens) (P29274 whole entry): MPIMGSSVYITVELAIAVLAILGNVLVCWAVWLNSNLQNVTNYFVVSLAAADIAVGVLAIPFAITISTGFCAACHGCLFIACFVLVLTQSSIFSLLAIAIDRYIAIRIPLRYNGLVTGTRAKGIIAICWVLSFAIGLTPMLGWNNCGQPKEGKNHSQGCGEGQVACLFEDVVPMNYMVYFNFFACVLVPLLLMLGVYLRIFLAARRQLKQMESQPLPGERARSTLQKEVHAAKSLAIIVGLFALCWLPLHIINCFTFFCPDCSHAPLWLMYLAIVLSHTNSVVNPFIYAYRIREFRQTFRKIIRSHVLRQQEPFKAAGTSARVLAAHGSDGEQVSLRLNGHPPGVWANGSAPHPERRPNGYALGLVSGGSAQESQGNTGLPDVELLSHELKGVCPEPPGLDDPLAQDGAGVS

Regarding `CCOC(=O)c1nc2c(=O)n(C)c3ccccc3n2n1`, the inhibition (usually the percentage by which the read-out fell short of the control) in test [1] is 6.4%. The affinity on Adenosine receptor A3 corresponds to a Ki of 820 nM.
`CCOC(=O)c1nc2c(=O)n(C)c3ccc(Cl)cc3n2n1`: the inhibition in test [1] worked out at 8%; in test [2] it was 60%; in [3] it was 0%.
For `COc1ccc(-c2nc3c(=O)[nH]c4ccc(Cl)cc4n3n2)cc1`, the Ki (as a rule, the dissociation constant of the complex between target and ligand, obtained from inhibition or displacement) worked out at 1060 nM at Adenosine receptor A1 [4], 3.29 nM at Adenosine receptor A1 [5] and 25.8 nM at Adenosine receptor A3.
With `Oc1nc2ccccc2n2nc(-c3cccs3)nc12`, the Ki on Adenosine receptor A1 [4] was 2940 nM; at Adenosine receptor A1 [5], 2 nM; on Adenosine receptor A3 it was 2 nM. For the same compound, the Ratio Ki in test [6] worked out at 1. The compound also came in with an inhibition in test [7] of 54%.
For `CCOC(=O)c1nc2c(O)nc3ccccc3n2n1`, the inhibition in test [1] amounted to 26%; in test [8], 5%; in test [9], 0%; in test [3], 3.6%. The compound also had an inhibition constant (Ki) at Adenosine receptor A3 of 70.8 nM. Also, the Ratio Ki in test [6] and in test [10] was > 150 in each case.
In turn, `Cc1ccc2nc(O)c3nc(-c4ccccc4)nn3c2c1` yielded an inhibition in [3] of 25%.
As for `Oc1nc2ccc(Cl)cc2n2ncnc12`, the inhibition came to 0% in test [1], 18.8% in test [2] and 23% in [3].
Consider `O=C(NCc1ccccc1)c1nc2c(O)nc3ccccc3n2n1`, for which the Ratio Ki in test [6] stood at 2.5. In [3], this compound returned an inhibition of 27%.
`CCOC(=O)c1nc2c(=O)[nH]c3ccc(NC(C)=O)cc3n2n1`: the Ki on Adenosine receptor A1 [4] is 14200 nM; on Adenosine receptor A3, 673 nM.
Turning to `Oc1nc2ccccc2n2ncnc12`, the inhibition in test [1] amounted to 29%; in test [2], 53%; in [3], 20%.
`CCOC(=O)c1nc2c(=O)[nH]c3cc(N)ccc3n2n1`: on Adenosine receptor A3, the Ki stood at 354 nM.
In turn, `CCOC(=O)c1nc2c(=O)[nH]c3ccc(C)cc3n2n1` had a Ki on Adenosine receptor A3 of 108 nM.
On to `CCOC(=O)c1nc2c(=O)n(CC)c3ccccc3n2n1`, for which the inhibition in test [11] was 13.3%; in test [2], 0%; in test [7] it was 20.5%.
`Oc1nc2ccccc2n2nc(-c3ccccc3)nc12`: the inhibition in test [3] is 7%.
`O=c1[nH]c2ccc(Cl)cc2n2nc(-c3cccs3)nc12`: the Ki on Adenosine receptor A3 turned out to be 257 nM.
For `COc1ccc(-c2nc3c(O)nc4ccccc4n3n2)cc1`, the inhibition in test [11] was found to be 0%; in test [8], 32%; in [9], 49%.
Consider `Cc1ccc2[nH]c(=O)c3nc(-c4ccccc4)nn3c2c1`, for which the Ki at Adenosine receptor A1 [4] stood at 525 nM; on Adenosine receptor A3 it was 111 nM.
With `Cc1ccc2c(c1)n1nc(-c3ccccc3)nc1c(=O)n2C`, the Ki at Adenosine receptor A1 [4] came out at 508 nM; at Adenosine receptor A3 it was 308 nM.
`Oc1nc2ccc(Cl)cc2n2nc(-c3cccs3)nc12` displayed an inhibition in test [11] of 54.2%.
As to `O=c1[nH]c2ccc(Cl)cc2n2nc(-c3ccsc3)nc12`, the values for the Ki at Adenosine receptor A1 [4] and at Adenosine receptor A3 were 1000 nM and 126 nM, respectively.
As for `Cn1c(=O)c2nc(-c3ccccc3)nn2c2ccccc21`, the Ki at Adenosine receptor A1 [4] amounted to 1080 nM. Further, the inhibition amounted to 30% in test [2] and 8.8% in [3].
As for `O=C(O)c1nc2c(O)nc3ccccc3n2n1`, the values for the inhibition in test [11], in [2] and in test [7] were 10%, 6.4% and 0%, respectively.
In the case of `CCOC(=O)c1nc2c(O)nc3cc(N)ccc3n2n1`, the inhibition in [1] amounted to 43%; in test [3], 9%.
As for `CCOC(=O)c1nc2c(N)nc3ccc(Cl)cc3n2n1`, the Ki at Adenosine receptor A1 [4] was determined as 5 nM; in test [12] it was 4900 nM. In addition, the inhibition in test [2] came to 15%.
The compound `CCOC(=O)c1nc2c(=O)[nH]c3ccc(Cl)cc3n2n1` returned a Ki on Adenosine receptor A3 of 557 nM.
With `COc1ccc(-c2nc3c(N)nc4ccc(Cl)cc4n3n2)cc1`, the Ki at Adenosine receptor A1 [4] is 150 nM; on Adenosine receptor A1 [5] it was 36 nM; at Adenosine receptor A3, 2.9 nM. This compound also came in with an inhibition in [9] of 21%.
As for `Oc1nc2ccc(Cl)cc2n2nc(-c3ccccc3)nc12`, the Ki at Adenosine receptor A1 [4] is 2400 nM; on Adenosine receptor A3 it was 163 nM.
In the case of `Oc1nc2ccccc2n2nc(-c3ccco3)nc12`, the values for the Ki at Adenosine receptor A1 [5] and at Adenosine receptor A3 were 1930 nM and 33 nM, respectively.
In the case of `CCOC(=O)c1nc2c(O)nc3ccc(N)cc3n2n1`, the inhibition came out at 64% in test [1], 33% in [8], 22% in [9] and 32.7% in test [3]. Moreover, the Ki on Adenosine receptor A3 came out at 25 nM. Besides, the Ratio Ki in test [6] and in [10] was > 400 in each case.
For `O=C(NCc1ccccc1)c1nc2c(=O)[nH]c3ccccc3n2n1`, the inhibition constant (Ki) on Adenosine receptor A1 [4] was determined as 578 nM; on Adenosine receptor A1 [5], 205 nM; on Adenosine receptor A3 it was 82 nM.
Regarding `Cn1c(=O)c2nc(-c3ccccc3)nn2c2cc(Cl)ccc21`, the inhibition in test [1] came to 18%; in test [2], 19%; in test [3] it was 0%.
For the compound `CCOC(=O)c1nc2c(O)nc3ccc(C)cc3n2n1`, the inhibition came to 41% in test [1] and 6.5% in [3].
For `CCOC(=O)c1nc2c(=O)n(O)c3ccccc3n2n1`, the results for the inhibition in [11], in [2] and in test [7] were 6.9%, 20% and 2%, respectively.
Take `NC(=O)c1nc2c(O)nc3ccccc3n2n1`: the inhibition worked out at 15% in test [1], 32% in test [2] and 17% in test [3].
Regarding `COc1ccc(-c2nc3c(O)nc4ccc(C)cc4n3n2)cc1`, the Ki on Adenosine receptor A1 [4] came to 1440 nM; at Adenosine receptor A1 [5], 2.86 nM; at Adenosine receptor A3 it was 2.5 nM. Moreover, in test [6], the Ratio Ki was 1.1. The same compound returned an inhibition in test [7] of 5%.
For the compound `Cn1c(=O)c2ncnn2c2cc(Cl)ccc21`, the inhibition stood at 11% in [1], 0% in test [2] and 8.9% in test [3].
With `CCOC(=O)c1nc2c(O)nc3ccc(Cl)cc3n2n1`, the inhibition in test [1] amounted to 20%; in test [7], 7%.
Take `Nc1nc2ccc(Cl)cc2n2nc(-c3ccccc3)nc12`: the Ki on Adenosine receptor A1 [4] worked out at 50 nM; on Adenosine receptor A3 it was 91.4 nM.
As for `O=C(OCc1ccccc1)c1nc2c(O)nc3ccccc3n2n1`, the Ki on Adenosine receptor A1 [4] turned out to be 3220 nM; at Adenosine receptor A3, 51.6 nM. Moreover, the inhibition came out at 33% in test [8], 27% in test [9] and 47% in test [3]. In addition, the Ratio Ki in test [6] and in test [10] was > 200 each time.
In the case of `Oc1nc2ccc(Cl)cc2n2nc(-c3ccoc3)nc12`, the results for the Ki at Adenosine receptor A1 [4], at Adenosine receptor A1 [5] and at Adenosine receptor A3 were 1950 nM, 125 nM and 78 nM, respectively. Further, the Ratio Ki in [6] was found to be 1.6. The compound further gave an inhibition in [7] of 25.3%.
In the case of `O=c1[nH]c2ccccc2n2nc(-c3ccccc3)nc12`, the Ki on Adenosine receptor A1 [4] came to 268 nM; on Adenosine receptor A3, 396 nM.
Take `CCOC(=O)c1nc2c(O)nc3cc(Cl)ccc3n2n1`: the inhibition came to 48% in [1] and 15.2% in [3]. At Adenosine receptor A3, the affinity corresponds to a Ki of 340 nM.
Consider `CCOC(=O)c1nc2c(=O)n(C(=O)OCC)c3ccccc3n2n1`, for which the inhibition in [1] was 14%; in [8], 12%; in [9] it was 9%; in test [3] it was 4%. The compound further yielded a Ki on Adenosine receptor A3 of 28.2 nM. Further, the Ratio Ki in test [6] and in test [10] was > 350 in each case.
For the compound `CC(C)OC(=O)c1nc2c(O)nc3ccccc3n2n1`, the inhibition in [1] was found to be 0%; in test [3], 2.9%. Moreover, on Adenosine receptor A3, the Ki was 420 nM.

The values above are taken from ChEMBL document CHEMBL1140434, “1,2,4-Triazolo[1,5-a]quinoxaline as a versatile tool for the design of selective human A3 adenosine receptor antagonists: synthesis, biological evaluation, and molecular modeling studies of 2-(hetero)aryl- and 2-carboxy-substituted derivatives” (J Med Chem, 2005).
